Measurements taken from patent publication US10202604B2, “Methods of using microRNA-141” (Stemirna Therapeutics Co., Ltd., priority 2016, dated 2019).

How the values were obtained:
Du145 cells = assay: Boyden chamber Matrigel invasion assay; format: cell-based, human; settings: miR-141 oligos 30 nM, 48 h vs NC
Protocol: FIGS. 3A-3J show partial suppression of epithelial to mesenchymal transition by miR-141 and CD44 as a direct target of miR-141. FIGS. 3A-3B show qPCR analysis of epithelial to mesenchymal transition markers in bulk (FIG. 3A) or CD44^+ (FIG. 3B) Du145 cells transfected with the miR-141 oligos (30 nM; 48 h). Results were presented as the relative expression levels over the cells transfected with the NC oligos. […] GAPDH was used as control and the relative protein levels after normalizing to GAPDH and NC controls were indicated below each lane. […] Shown below is the actual sequence in the region with the mutated miR-141 binding sequence indicated in grey (below). […] Shown are representative images. […]
Du145 cells transfected with NC or miR-141 oligos at the two doses and time intervals indicated were used in Western blotting. Indicated below are relative expression levels (normalized to respective GAPDH and compared to NC) of each protein determined by densitometric scanning of the individual bands. […]
FIG. 6A: Putative binding site of miR-141 in EZH2 3′-UTR. […] Relative protein levels were measured by densitometry and normalized to GAPDH levels (indicated below). […]
For Boyden Chamber invasion assays, Biocoat Matrigel Invasion Chamber (BD, Franklin Lakes, N.J.) was employed following the manufacturer's instructions. […] Representative images were taken for each membrane and cells were counted. […]

CD44 = CD44 levels in endpoint tumors; format: in vivo; settings: tumors from miR-141 overexpressing cells vs control tumors

miR-141: miR-141 mirVana mimics (Life Technologies); microRNA-141 oligonucleotide may have SEQ ID NO: 1; in some experiments over-expressed by lentiviral vectors (UAACACUGUCUGGUAAAGAUGG; listed as RNA, further chemistry not given here) [miR-141 mirVana mimics (Life Technologies); in some experiments over-expressed by lentiviral vectors]
Du145 cell invasion (Du145 cells): inhibited | CD44 mRNA level in endpoint tumors (CD44): lower levels | CD44 protein level in endpoint tumors (CD44): lower levels
